Test results reported in PubChem BioAssay AID192 (DTP/NCI, 2004).
Several values for one entry are separate records, joined by “and”; a condition that tells them apart may be missing. Equal values may be shown once. Inconclusive results and toxic doses are left out. Rule for the calls: active = survival T/C of 150% or more; inactive = T/C below 125% in these data.

Test system: BDF1 mice, B16 melanoma ip, median survival T/C
Assay: NCI In Vivo Anticancer Drug Screen. Data for tumor model B16 Melanoma (intraperitoneal) in B6D2F1 (BDF1) mice
Details: endpoint: median survival time, higher = longer survival
Procedure, shortened: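 Survival or tumor size is measured after treatment of tumor-bearing mice and normalised to the vehicle-treated control group.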

[1] = dose: 5.0 mg/kg/injection, schedule: Q01DX009 (ip), vehicle: saline with Tween-80
[2] = dose: 10.0 mg/kg/injection, schedule: Q01DX009 (ip), vehicle: saline with Tween-80
[3] = dose: 100.0 mg/kg/injection, schedule: Q01DX009 (ip), vehicle: Klucel (hydroxypropylcellulose) (HPC)
[4] = dose: 200.0 mg/kg/injection, schedule: Q01DX009 (ip), vehicle: Klucel (hydroxypropylcellulose) (HPC)
[5] = dose: 400.0 mg/kg/injection, schedule: Q01DX009 (ip), vehicle: Klucel (hydroxypropylcellulose) (HPC)
[6] = dose: 12.5 mg/kg/injection, schedule: Q01DX009 (ip), vehicle: saline
[7] = dose: 25.0 mg/kg/injection, schedule: Q01DX009 (ip), vehicle: saline
[8] = dose: 50.0 mg/kg/injection, schedule: Q01DX009 (ip), vehicle: saline
[9] = dose: 3.12 mg/kg/injection, schedule: Q01DX009 (ip), vehicle: saline
[10] = dose: 12.5 mg/kg/injection, schedule: Q01DX009 (ip), vehicle: saline with Tween-80
[11] = dose: 25.0 mg/kg/injection, schedule: Q01DX009 (ip), vehicle: saline with Tween-80
[12] = dose: 50.0 mg/kg/injection, schedule: Q01DX009 (ip), vehicle: saline with Tween-80
[13] = dose: 100.0 mg/kg/injection, schedule: Q01DX009 (ip), vehicle: saline with Tween-80
[14] = dose: 6.25 mg/kg/injection, schedule: Q01DX009 (ip), vehicle: saline

Measured: T/C

C=CCc1cccc(OC)c1OCCN(CC)CC
inactive: [1] 88 % of control | [2] 100 % of control | dose: 20.0 mg/kg/injection, schedule: Q01DX009 (ip), vehicle: saline with Tween-80 100 % of control

COc1ccc(Cl)cc1NC(=O)CC(C)=O
inactive: [3] 100 % of control | [4] 93 % of control | [5] 96 % of control

Oc1ccc(/C=N\Nc2ccccn2)c(O)c1
inactive: dose: 12.5 mg/kg/injection, schedule: Q01DX009 (ip), vehicle: Klucel (hydroxypropylcellulose) (HPC) 90 % of control | dose: 25.0 mg/kg/injection, schedule: Q01DX009 (ip), vehicle: Klucel (hydroxypropylcellulose) (HPC) 102 % of control | dose: 50.0 mg/kg/injection, schedule: Q01DX009 (ip), vehicle: Klucel (hydroxypropylcellulose) (HPC) 98 % of control | [3] 115 % of control | [4] 124 % of control

Nc1ccc(OCc2ccc(S(=O)(=O)F)c(Cl)c2)c(Cl)c1
inactive: [3] 110 % of control | [4] 110 % of control

Cc1cccc(C2CCCC2c2ccccc2)c1 (configuration not stated)
inactive: dose: 75.0 mg/kg/injection, schedule: Q01DX009 (ip), vehicle: Klucel (hydroxypropylcellulose) (HPC) 88 % of control | dose: 150.0 mg/kg/injection, schedule: Q01DX009 (ip), vehicle: Klucel (hydroxypropylcellulose) (HPC) 97 % of control | dose: 300.0 mg/kg/injection, schedule: Q01DX009 (ip), vehicle: Klucel (hydroxypropylcellulose) (HPC) 100 % of control

Nc1n[n+](-c2ccccc2)no1
inactive: dose: 1.56 mg/kg/injection, schedule: Q01DX009 (ip), vehicle: water 102 % of control | dose: 3.12 mg/kg/injection, schedule: Q01DX009 (ip), vehicle: water 89 % of control | dose: 3.13 mg/kg/injection, schedule: Q01DX009 (ip), vehicle: water 96 % of control | dose: 6.25 mg/kg/injection, schedule: Q01DX009 (ip), vehicle: water 102 % of control and 105 % of control | dose: 12.5 mg/kg/injection, schedule: Q01DX009 (ip), vehicle: water 119 % of control

O=C1C=CN(C2OC(CO)C(O)C2O)C(=O)C1 (configuration not stated)
inactive: [6] 104 % of control | [7] 104 % of control | dose: 50.0 mg/kg/injection, schedule: Q01DX009 (ip), vehicle: saline sonified 100 % of control | [8] 119 % of control | dose: 100.0 mg/kg/injection, schedule: Q01DX009 (ip), vehicle: saline sonified 86 % of control | dose: 100.0 mg/kg/injection, schedule: Q01DX009 (ip), vehicle: saline 118 % of control | dose: 200.0 mg/kg/injection, schedule: Q01DX009 (ip), vehicle: saline sonified 89 % of control

CC(/C=N/N=C(N)N)=N\NC(N)=S
inactive: dose: 50.0 mg/kg/injection, schedule: Q01DX009 (ip), vehicle: distilled water + Tween-80 105 % of control | dose: 100.0 mg/kg/injection, schedule: Q01DX009 (ip), vehicle: distilled water + Tween-80 94 % of control

N#CCCC1C2CCC(C2)C1C#N (configuration not stated)
inactive: dose: 5.0 mg/kg/injection, schedule: Q01DX009 (ip), vehicle: Klucel (hydroxypropylcellulose) (HPC) 112 % of control | dose: 10.0 mg/kg/injection, schedule: Q01DX009 (ip), vehicle: Klucel (hydroxypropylcellulose) (HPC) 95 % of control

CCOC(=O)c1cncc(C(=O)OCC)c1
inactive: [3] 107 % of control | [4] 113 % of control | [5] 106 % of control

CCCCn1c(=S)[nH]c2ccccc2c1=O
inactive: [3] 98 % of control | [4] 96 % of control | [5] 98 % of control

CC(=O)c1ccc2c(c1)N(CCCN1CCN(CCO)CC1)c1ccccc1S2
inactive: dose: 0.78 mg/kg/injection, schedule: Q01DX009 (ip), vehicle: saline 98 % of control | dose: 1.56 mg/kg/injection, schedule: Q01DX009 (ip), vehicle: saline 103 % of control | [9] 97 % of control

CCCCCCCCCCCCCCCCCC(=O)NCNC(=O)CCCCCCCCCCCCCCCCC
inactive: dose: 2.5 mg/kg/injection, schedule: Q01DX009 (ip), vehicle: saline with Tween-80 102 % of control | dose: 4.68 mg/kg/injection, schedule: Q04DX003 (ip), vehicle: saline with Tween-80 86 % of control | [1] 100 % of control | dose: 9.37 mg/kg/injection, schedule: Q04DX003 (ip), vehicle: saline with Tween-80 97 % of control | [2] 87 % of control

CCCSc1ncnc2nc[nH]c12
inactive: [10] 102 % of control | [11] 102 % of control | [12] 97 % of control and 115 % of control | [13] 107 % of control

O=Nc1ccc(O)c(=O)cc1
inactive: dose: 1.0 mg/kg/injection, schedule: Q01DX009 (ip), vehicle: saline with Tween-80 97 % of control | dose: 2.0 mg/kg/injection, schedule: Q01DX009 (ip), vehicle: saline with Tween-80 90 % of control

CCN1CSC(=S)N(CC)C1
inactive: [10] 104 % of control | [11] 102 % of control | dose: 25.0 mg/kg/injection, schedule: Q04DX003 (ip), vehicle: saline with Tween-80 89 % of control | [12] 97 % of control | dose: 50.0 mg/kg/injection, schedule: Q04DX003 (ip), vehicle: saline with Tween-80 100 % of control | [13] 100 % of control | dose: 100.0 mg/kg/injection, schedule: Q04DX003 (ip), vehicle: saline with Tween-80 92 % of control

COC(=O)[CH](C[N+](=O)[O-])[Hg][Cl] (configuration not stated)
inactive: dose: 3.2 mg/kg/injection, schedule: Q01DX009 (ip), vehicle: saline with Tween-80 95 % of control | [14] 102 % of control | dose: 6.3 mg/kg/injection, schedule: Q01DX009 (ip), vehicle: saline with Tween-80 91 % of control | [10] 89 % of control | [6] 93 % of control | dose: 12.5 mg/kg/injection, schedule: Q04DX003 (ip), vehicle: Klucel (hydroxypropylcellulose) (HPC) 94 % of control | [7] 89 % of control | dose: 25.0 mg/kg/injection, schedule: Q04DX003 (ip), vehicle: Klucel (hydroxypropylcellulose) (HPC) 92 % of control

COC(=O)C1=CCCN(C)C1
inactive: [9] 100 % of control | [14] 115 % of control | [6] 100 % of control | [7] 92 % of control | [8] 115 % of control
